The text below walks through data of patent US8946290B2, “Combination of selected opioids with muscarine antagonists for treating urinary incontinence” (Gruenenthal GmbH, priority 2001, dated 2015).

In this assay the test system is bladder function. Put plainly: Cystometry on anaesthetized naive rats. The format is in vivo. The following applies: anaesthetized naive female rats, rate of contractions (micturition events/min). The procedure:
The cystometric investigation on naive female rats was carried out by the method of Kimura et al. (Kimura et al., 1996, Int. J. Urol. 3:218-227). The abdomen of anaesthetized, ventilated rats is opened up and the ureter is ligated. The urine is drained from the kidneys. A catheter is inserted into the bladder and fixed. […] After stable starting values are reached, the test substance is administered intravenously. An influence on bladder function manifests itself via suppression of the spontaneous contractions.
In the present example, compound A ((+)-(2R,3R)-1-dimethylamino-3-(3-methoxy-phenyl)-2-methyl-pentan-3-ol; hydrochloride) in the dosage of 0.1 mg/kg intravenous was combined with compound B (oxybutynin) in the dosage of 0.03 mg/kg intravenous and the action of this combination was compared with that of the individual substances.

Regarding `CC[C@](O)(c1cccc(OC)c1)[C@H](C)CN(C)C.Cl` [Compound A, (+)-(2R,3R)-1-dimethylamino-3-(3-methoxy-phenyl)-2-methyl-pentan-3-ol; hydrochloride], the “Inhibition of the rate of contractions compared with the pretest” value (0.1 mg/kg i.v.) was found to be 21.7% MPE. Consider `CCN(CC)CC#CCOC(=O)C(O)(c1ccccc1)C1CCCCC1` (centres unmarked) [Compound B, oxybutynin], for which the “Inhibition of the rate of contractions compared with the pretest” value (0.03 mg/kg i.v.) came to 10.7% MPE.
